Results published in patent US20230212172A1, “ARYLACETAMIDE ANALOGS OF PIPERAZINE-[1,2,4]TRIAZOLO[4,3-B]PYRIDAZINES” (University of Vermont and State Agricultural College, priority 2020, published 2023).

tested on: C. parvum; assay: In vitro inhibition of C. parvum development in HCT-8 cells; format: cell-based; conditions: Cryptosporidium parvum; HCT-8 cells, Table 4; read-out: EC50 for inhibition of C. parvum development in HCT-8 cells

| Compound | EC50 [nM] |
| --- | --- |
| O=C(Cc1ccccc1Cl)N1CCN(c2ccc3nncn3n2)CC1 [Example 2178, 2-(2-chlorophenyl)-1-(4-{[1,2,4]triazolo[4,3-b]pyridazin-6-yl}piperazin-1-yl)ethan-1-one] | > 25000 |
| O=C(Cc1ccc(Br)cc1)N1CCN(c2ccc3nncn3n2)CC1 [Example 2767, 2-(4-bromophenyl)-1-(4-{[1,2,4]triazolo[4,3-b]pyridazin-6-yl}piperazin-1-yl)ethan-1-one] | 1120 |
| O=C(Cc1cccc(Cl)c1)N1CCN(c2ccc3nncn3n2)CC1 [Example 2764, 2-(3-chlorophenyl)-1-(4-{[1,2,4]triazolo[4,3-b]pyridazin-6-yl}piperazin-1-yl)ethan-1-one] | 3610 |
| O=C(Cc1ccc(CO)cc1)N1CCN(c2ccc3nncn3n2)CC1 [Example 2818] | > 25000 |
| O=C(Cc1cccc(Cl)c1Cl)N1CCN(c2ccc3nncn3n2)CC1 [Example 2798, 2-(2,3-dichlorophenyl)-1-(4-{[1,2,4]triazolo[4,3-b]pyridazin-6-yl}piperazin-1-yl)ethan-1-one] | > 25000 |
| O=C(C(=O)N1CCN(c2ccc3nncn3n2)CC1)c1ccc(Cl)c(Cl)c1 [Example 2765, 1-(3,4-dichlorophenyl)-2-(4-{ [1,2,4]triazolo[4,3-b]pyridazin-6-yl}piperazin-1-yl)ethane-1,2-dione] | 2250 |
| O=C(Cc1ccc(Cl)c(Cl)c1)N1CCN(c2ccc3nnc(-c4ccnc(C(F)(F)F)c4)n3n2)CC1 [Example 10262, 2-(3,4-dichlorophenyl)-1-(4-{3-[2-(trifluoromethyl)pyridin-4-yl]-[1,2,4]triazolo[4,3-b]pyridazin-6-yl}piperazin-1-yl)ethan-1-one] | 6110 |
| CC(C)(C)OC(=O)NCC#Cc1ccc(CC(=O)N2CCN(c3ccc4nncn4n3)CC2)cc1 [Example 2811, Tert-butyl N-(3-{4-[2-oxo-2-(4-{[1,2,4]triazolo[4,3-b]pyridazin-6-yl}piperazin-1-yl)ethyl]phenyl}prop-2-yn-1-yl)carbamate] | 12800 |
| O=C(Cc1ccc2ccccc2c1)N1CCN(c2ccc3nncn3n2)CC1 [Example 2749, 2-(naphthalen-2-yl)-1-(4-{[1,2,4]triazolo[4,3-b]pyridazin-6-yl}piperazin-1-yl)ethan-1-one] | 12400 |
| O=C(Cc1ccc(COn2nnc3ccccc32)cc1)N1CCN(c2ccc3nncn3n2)CC1 [Example 2796, 2-{4-[(1H-1,2,3-benzotriazol-1-yloxy)methyl]phenyl}-1-(4-{[1,2,4]triazolo[4,3-b]pyridazin-6-yl}piperazin-1-yl)ethan-1-one] | > 25000 |
| O=C(Cc1ccc(S(F)(F)(F)(F)F)cc1)N1CCN(c2ccc3nncn3n2)CC1 [Example 10441, 2-[4-(pentafluoro-λ^6-sulfanyl)phenyl]-1-(4-{[1,2,4]triazolo[4,3-b]pyridazin-6-yl}piperazin-1-yl)ethan-1-one] | 11500 |
| Cc1nnc2ccc(N3CCN(C(=O)Cc4ccc(Cl)c(Cl)c4)CC3)nn12 [Example 2808, 2-(3,4-dichlorophenyl)-1-(4-{3-methyl-[1,2,4]triazolo[4,3-b]pyridazin-6-yl}piperazin-1-yl)ethan-1-one] | 30000 |
| N#Cc1ccc(CC(=O)N2CCN(c3ccc4nncn4n3)CC2)cc1 [Example 2797, 4-[2-oxo-2-(4-{[1,2,4]triazolo[4,3-b]pyridazin-6-yl}piperazin-1-yl)ethyl]benzonitrile] | 11000 |
| O=C(N1CCN(c2ccc3nncn3n2)CC1)C(F)(F)c1ccc(Cl)c(Cl)c1 [Example 2799, 2-(3,4-dichlorophenyl)-2,2-difluoro-1-(4-{[1,2,4]triazolo[4,3-b]pyridazin-6-yl}piperazin-1-yl)ethan-1-one] | 2300 |
| O=C(Cc1ccc([N+](=O)[O-])cc1)N1CCN(c2ccc3nncn3n2)CC1 [Example 2755, 2-(4-nitrophenyl)-1-(4-{[1,2,4]triazolo[4,3-b]pyridazin-6-yl}piperazin-1-yl)ethan-1-one] | 2580 |
| CC(C)(C)OC(=O)NCCCc1ccc(CC(=O)N2CCN(c3ccc4nncn4n3)CC2)cc1 [Example 10242, Tert-butyl N-(3-{4-[2-oxo-2-(4-{[1,2,4]triazolo[4,3-b]pyridazin-6-yl}piperazin-1-yl)ethyl]phenyl}propyl)carbamate] | > 50000 |
| O=C(Cc1ccc(-c2ccccc2)cc1)N1CCN(c2ccc3nncn3n2)CC1 [Example 2809, 2-{[1,1′-biphenyl]-4-yl}-1-(4-{[1,2,4]triazolo[4,3-b]pyridazin-6-yl}piperazin-1-yl)ethan-1-one] | > 25000 |
| COc1cccc(CC(=O)N2CCN(c3ccc4nncn4n3)CC2)c1 [Example 2762, 2-(3-methoxyphenyl)-1-(4-{[1,2,4]triazolo[4,3-b]pyridazin-6-yl}piperazin-1-yl)ethan-1-one] | 16400 |
| O=C(Cc1c(F)c(F)c(F)c(F)c1F)N1CCN(c2ccc3nncn3n2)CC1 [Example 10090, 2-(2,3,4,5,6-pentafluorophenyl)-1-(4-{[1,2,4]triazolo[4,3-b]pyridazin-6-yl}piperazin-1-yl)ethan-1-one] | > 50000 |
| O=C(Cc1ccc(CN2CCOCC2)cc1)N1CCN(c2ccc3nncn3n2)CC1 [Example 2817, 2-{4-[(Morpholin-4-yl)methyl]phenyl}-1-(4-{[1,2,4]triazolo[4,3-b]pyridazin-6-yl}piperazin-1-yl)ethan-1-one] | > 25000 |
| O=C(Cc1c(Cl)cccc1Cl)N1CCN(c2ccc3nncn3n2)CC1 [Example 2720, 2-(2,6-dichlorophenyl)-1-(4-{[1,2,4]triazolo[4,3-b]pyridazin-6-yl}piperazin-1-yl)ethan-1-one] | > 25000 |
| COc1ccc(CC(=O)N2CCN(c3ccc4nncn4n3)CC2)cc1 [Example 2761, 2-(4-methoxyphenyl)-1-(4-{[1,2,4]triazolo[4,3-b]pyridazin-6-yl}piperazin-1-yl)ethan-1-one] | 16400 |
| O=C(Cc1ccc(Cl)cc1Cl)N1CCN(c2ccc3nncn3n2)CC1 [Example 2721, 2-(2,4-dichlorophenyl)-1-(4-{[1,2,4]triazolo[4,3-b]pyridazin-6-yl}piperazin-1-yl)ethan-1-one] | > 25000 |
| O=C(Cc1cccc2ccccc12)N1CCN(c2ccc3nncn3n2)CC1 [Example 2257, 2-(naphthalen-1-yl)-1-(4-{[1,2,4]triazolo[4,3-b]pyridazin-6-yl}piperazin-1-yl)ethan-1-one] | 17100 |
| O=C(Cc1cc(Cl)ccc1Cl)N1CCN(c2ccc3nncn3n2)CC1 [Example 2746, 2-(2,5-dichlorophenyl)-1-(4-{[1,2,4]triazolo[4,3-b]pyridazin-6-yl}piperazin-1-yl)ethan-1-one] | 33000 |

The next lines start with the values.

| EC50 [nM] | Compound |
| --- | --- |
| 530 | O=C(Cc1ccc(Cl)c(F)c1)N1CCN(c2ccc3nncn3n2)CC1 [Example 2631, 2-(4-chloro-3-fluorophenyl)-1-(4-{[1,2,4]triazolo[4,3-b]pyridazin-6-yl}piperazin-1-yl)ethan-1-one] |
| 2000 | O=C(Cc1ccc(C(F)(F)F)c(F)c1)N1CCN(c2ccc3nncn3n2)CC1 [Example 10480, 2-[3-fluoro-4-(trifluoromethyl)phenyl] -1-(4-{[1,2,4]triazolo[4,3-b]pyridazin-6-yl}piperazin-1-yl)ethan-1-one] |
| 880 | O=C(Cc1cc(F)cc(Cl)c1)N1CCN(c2ccc3nncn3n2)CC1 [Example 10483, 2-(3-chloro-5-fluorophenyl)-1-(4-{[1,2,4]triazolo[4,3-b]pyridazin-6-yl}piperazin-1-yl)ethan-1-one] |
| 760 | O=C(Cc1ccc(F)c(F)c1)N1CCN(c2ccc3nncn3n2)CC1 [Example 2800, 2-(3,4-difluorophenyl)-1-(4-{[1,2,4]triazolo[4,3-b]pyridazin-6-yl}piperazin-1-yl)ethan-1-one] |
| 292 | Cc1cc(CC(=O)N2CCN(c3ccc4nncn4n3)CC2)ccc1Cl [Example 2758, 2-(4-chloro-3-methylphenyl)-1-(4-{[1,2,4]triazolo[4,3-b]pyridazin-6-yl}piperazin-1-yl)ethan-1-one] |
| 251 | O=C(Cc1ccc(Br)c(Cl)c1)N1CCN(c2ccc3nncn3n2)CC1 [Example 10238, 2-(4-bromo-3-chlorophenyl)-1-(4-{[1,2,4]triazolo[4,3-b]pyridazin-6-yl}piperazin-1-yl)ethan-1-one] |
| 68.7 | O=C(Cc1ccc(F)c(C(F)(F)F)c1)N1CCN(c2ccc3nncn3n2)CC1 [Example 10482, 2-[4-fluoro-3-(trifluoromethyl)phenyl] -1-(4-{[1,2,4]triazolo[4,3-b]pyridazin-6-yl}piperazin-1-yl)ethan-1-one] |
| 2290 | O=C(Cc1cccc(Br)c1)N1CCN(c2ccc3nncn3n2)CC1 [Example 2760, 2-(3-bromophenyl)-1-(4-{[1,2,4]triazolo[4,3-b]pyridazin-6-yl}piperazin-1-yl)ethan-1-one] |
| 5660 | O=C(Cc1cc(F)cc(F)c1)N1CCN(c2ccc3nncn3n2)CC1 [Example 10485, 2-(3,5-difluorophenyl)-1-(4-{[1,2,4]triazolo[4,3-b]pyridazin-6-yl}piperazin-1-yl)ethan-1-one] |
| 1260 | Cc1ccc(CC(=O)N2CCN(c3ccc4nncn4n3)CC2)cc1Cl [Example 2756, 2-(3-chloro-4-methylphenyl)-1-(4-{[1,2,4]triazolo[4,3-b]pyridazin-6-yl}piperazin-1-yl)ethan-1-one] |
| 121 | O=C(Cc1ccc(Cl)c(Br)c1)N1CCN(c2ccc3nncn3n2)CC1 [Example 10239, 2-(3-bromo-4-chlorophenyl)-1-(4-{[1,2,4]triazolo[4,3-b]pyridazin-6-yl}piperazin-1-yl)ethan-1-one] |

same assay, conditions: Cryptosporidium parvum; average EC50, C. parvum in HCT-8 cells; read-out: Cp HTC-8 Avg EC50

| EC50 [nM] | Compound |
| --- | --- |
| 530 | O=C(Cc1ccc(Cl)c(F)c1)N1CCN(c2ccc3nncn3n2)CC1 [Example 2631, 2-(4-chloro-3-fluorophenyl)-1-(4-{[1,2,4]triazolo[4,3-b]pyridazin-6-yl}piperazin-1-yl)ethan-1-one] |
| 880 | O=C(Cc1cc(F)cc(Cl)c1)N1CCN(c2ccc3nncn3n2)CC1 [Example 10483, 2-(3-chloro-5-fluorophenyl)-1-(4-{[1,2,4]triazolo[4,3-b]pyridazin-6-yl}piperazin-1-yl)ethan-1-one] |
| 760 | O=C(Cc1ccc(F)c(F)c1)N1CCN(c2ccc3nncn3n2)CC1 [Example 2800, 2-(3,4-difluorophenyl)-1-(4-{[1,2,4]triazolo[4,3-b]pyridazin-6-yl}piperazin-1-yl)ethan-1-one] |
| 880 | O=C(Cc1ccc(Cl)cc1)N1CCN(c2ccc3nncn3n2)CC1 [Example 2634, 2-(4-chlorophenyl)-1-(4-{[1,2,4]triazolo[4,3-b]pyridazin-6-yl}piperazin-1-yl)ethan-1-one] |
| 279 | Cc1cc(CC(=O)N2CCN(c3ccc4nncn4n3)CC2)ccc1Cl [Example 2758, 2-(4-chloro-3-methylphenyl)-1-(4-{[1,2,4]triazolo[4,3-b]pyridazin-6-yl}piperazin-1-yl)ethan-1-one] |
| 319 | O=C(Cc1cc(C(F)(F)F)cc(C(F)(F)F)c1)N1CCN(c2ccc3nncn3n2)CC1 [SLU-0010495, 2-[3,5-bis(trifluoromethyl)phenyl]-1-(4-{[1,2,4]triazolo[4,3-b]pyridazin-6-yl}piperazin-1-yl)ethan-1-one] |
| 251 | O=C(Cc1ccc(Br)c(Cl)c1)N1CCN(c2ccc3nncn3n2)CC1 [Example 10238, 2-(4-bromo-3-chlorophenyl)-1-(4-{[1,2,4]triazolo[4,3-b]pyridazin-6-yl}piperazin-1-yl)ethan-1-one] |
| 68.6 | O=C(Cc1ccc(F)c(C(F)(F)F)c1)N1CCN(c2ccc3nncn3n2)CC1 [Example 10482, 2-[4-fluoro-3-(trifluoromethyl)phenyl] -1-(4-{[1,2,4]triazolo[4,3-b]pyridazin-6-yl}piperazin-1-yl)ethan-1-one] |
| 121 | O=C(Cc1ccc(Cl)c(Br)c1)N1CCN(c2ccc3nncn3n2)CC1 [Example 10239, 2-(3-bromo-4-chlorophenyl)-1-(4-{[1,2,4]triazolo[4,3-b]pyridazin-6-yl}piperazin-1-yl)ethan-1-one] |
